The values below come from patent publication US20200316089A1, “1,2-DIHYDRO-3H-PYRAZOL-3-ONE COMPOUNDS AND METHODS OF USING SAME” (Frequency Therapeutics, Inc., priority 2017, published 2020).

A value given as a limit tells only on which side of the number the result lay.

In assay [1] the test system is Lgr5-positive cochlear cells. In words: Expansion of Lgr5-positive cells (cochlear stem cell expansion, Lgr5-GFP flow cytometry). The format is cell-based. The settings on record: 240 h; Lgr5-GFP mouse cochlear cells, 10 days in culture; read-out: Potency (Lgr5-positive cell expansion). Here is the method:
Lgr5-EGFP-IRES-Cre-ER mice (Barker et al., 2007) (http://jaxmice.jax.org/strain/008875.html) are used to analyze the effects of small molecules on cochlear stem cell expansion.
Isolation of stem cells from the inner ear: All animal studies are conducted under an approved institutional protocol according to National Institutes of Health guidelines. For experiments with neonatal mice (postnatal days 1-3), the cochleae are dissected in HBSS and the organ of Corti are separated from the stria vascularis and the modiolus. The organs of Corti are then treated with Cell Recovery Solution (Corning) for 1 h to separate cochlear epithelium from the underlying mesenchyme. Epithelia are then collected and treated with TrypLE (Life Technologies) for 15-20 minutes at 37° C. Single cells obtained by mechanical trituration are filtered (40 μm) and suspended in Matrigel (Corning) for 3D culture. […]
Lgr5-positive cells are quantified after 10 days (D10) in culture in multiple conditions. […] The cells are then stained with propidium iodide (PI) and are analyzed using a flow cytometer for Lgr5-GFP expression. The number of GFP-positive cells and the percentage of GFP-positive cells are quantified.

For assay [2], the target named is recombinant human GSK3β (Homo sapiens, UniProt P49841). In words: in vitro enzymatic assay (Kinase-Glo Max) for inhibition of GSK3β. It is filed as biochemical. Conditions: 10 uM ATP. Here is the method: (§1) Enzymatic activities of compounds of the present disclosure are tested with recombinant human GSK3 using an in vitro enzymatic assay for inhibition GSK3α and GSK3β.
Chain of recombinant human GSK3β (P49841 whole entry): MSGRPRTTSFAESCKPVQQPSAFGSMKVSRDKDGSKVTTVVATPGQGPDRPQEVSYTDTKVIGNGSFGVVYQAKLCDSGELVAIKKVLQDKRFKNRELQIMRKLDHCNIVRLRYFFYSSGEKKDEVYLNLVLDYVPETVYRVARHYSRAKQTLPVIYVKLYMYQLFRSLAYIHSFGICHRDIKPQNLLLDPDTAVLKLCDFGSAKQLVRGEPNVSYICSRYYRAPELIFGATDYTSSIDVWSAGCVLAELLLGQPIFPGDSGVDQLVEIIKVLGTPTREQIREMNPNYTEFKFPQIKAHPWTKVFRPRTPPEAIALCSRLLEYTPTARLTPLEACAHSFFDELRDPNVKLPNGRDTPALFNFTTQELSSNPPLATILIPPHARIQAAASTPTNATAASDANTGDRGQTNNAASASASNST
(§2) The assay was performed using Kinase-Glo Max luminescence kinase assay kit (Promega). It measures kinase activity by quantitating the amount of ATP remaining in solution following a kinase reaction. The luminescent signal from the assay is correlated with the amount of ATP present and is inversely correlated with the amount of kinase activity. The compounds were diluted in 10% DMSO) and 5 μl of the dilution was added to a 50 μl reaction so that the final concentration of DMSO is 1% in all of reactions. The enzymatic reactions were conducted at 30° C. for 40 minutes. […] After the enzymatic reaction, 50 μl of Kinase-Glo Max Luminescence kinase assay solution (Promega) was added to each reaction and incubate the plate for 15 minutes at room temperature. Luminescence signal was measured using a BioTek Synergy 2 microplate reader.
(§3) Kinase activity assays were performed in duplicate at each concentration. The luminescence data were analyzed using the computer software, Graphpad Prism. The difference between luminescence intensities in the absence of Kinase (Lut) and in the presence of Kinase (Luc) was defined as 100% activity (Lut−Luc). […]

Assay [3] deals with recombinant human GSK3α (Homo sapiens, UniProt P49840). In words: in vitro enzymatic assay (Kinase-Glo Max) for inhibition of GSK3α. Conditions: 10 uM ATP, 0.1 mg/ml GSKtide, 30° C. 40 minutes; read-out: Potency GSK-3alpha. It is filed as biochemical. The method, then: as §1, §2, §3
Chain of recombinant human GSK3α (P49840 whole entry): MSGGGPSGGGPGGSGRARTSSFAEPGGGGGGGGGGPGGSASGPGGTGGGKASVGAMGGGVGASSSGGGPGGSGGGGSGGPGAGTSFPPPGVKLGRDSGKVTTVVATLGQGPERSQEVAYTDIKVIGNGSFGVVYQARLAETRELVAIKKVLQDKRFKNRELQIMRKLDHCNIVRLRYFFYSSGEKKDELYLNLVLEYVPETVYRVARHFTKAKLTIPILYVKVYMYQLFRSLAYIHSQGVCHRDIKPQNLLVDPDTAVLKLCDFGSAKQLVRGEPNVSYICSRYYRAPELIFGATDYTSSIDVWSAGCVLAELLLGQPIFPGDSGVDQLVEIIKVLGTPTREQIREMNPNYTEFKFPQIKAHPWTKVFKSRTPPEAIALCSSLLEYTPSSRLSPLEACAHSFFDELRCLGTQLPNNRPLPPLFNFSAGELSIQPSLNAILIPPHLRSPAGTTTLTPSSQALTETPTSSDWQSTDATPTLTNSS

As for `O=C(N1CCCCC1)N1CCn2cc(-c3[nH][nH]c(=O)c3-c3cnc4ccccn34)c3cc(F)cc(c32)C1` [Compound I-4], in assay [1], the EC50 is more than 10 µM. Besides, the IC50 is 0.706 µM in assay [2] (0.1 mg/ml GSKtide, 30° C. 40 minutes, read-out: Potency GSK-3beta) and 0.348 µM in assay [3].

As to `O=C(N1CCCCC1)N1CCn2cc(-c3c(-c4cnc5ccccn45)[nH][nH]c3=O)c3cc(F)cc(c32)C1` [Compound I-52], the EC50 in assay [1] was more than 10 µM. Moreover, in assay [2] (at 10 uM compound, read-out: Potency GSK-3beta: % inhibition), the inhibition at 10 µM turned out to be 34%. Also, the IC50 in assay [3] is 10 µM.
